A word on the IC50: it is the concentration at which inhibition is half-maximal. Lower therefore signals inhibition by little substance. A word on the inhibition: it is the percentage by which the read-out fell short of the control. High values mean strong suppression, low ones little suppression.

Where only a bound is given, the exact number is not on record here.

These results are taken from article PMC3474704 (Clinical cancer research : an official journal of the …, 2012).

Data set [1] concerns the target CDK1 (Homo sapiens, UniProt P06493). As to conditions: versus CHK1.
In data set [2] the target is T1, CHK1 (Homo sapiens, UniProt O14757).
T1 sequence (O14757 1-476): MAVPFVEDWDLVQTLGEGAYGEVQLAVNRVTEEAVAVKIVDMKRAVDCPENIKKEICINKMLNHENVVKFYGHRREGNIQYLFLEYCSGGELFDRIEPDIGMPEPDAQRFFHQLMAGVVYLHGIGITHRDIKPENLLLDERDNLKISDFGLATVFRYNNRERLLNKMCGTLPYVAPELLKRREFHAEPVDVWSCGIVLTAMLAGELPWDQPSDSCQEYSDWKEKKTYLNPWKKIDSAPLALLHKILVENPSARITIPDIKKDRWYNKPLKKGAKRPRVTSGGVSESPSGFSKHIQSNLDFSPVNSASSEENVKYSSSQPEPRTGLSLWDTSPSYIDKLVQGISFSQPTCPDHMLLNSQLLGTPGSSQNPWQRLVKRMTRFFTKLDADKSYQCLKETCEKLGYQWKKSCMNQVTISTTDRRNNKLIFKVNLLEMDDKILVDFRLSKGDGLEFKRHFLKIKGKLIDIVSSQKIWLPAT
The data set is described as follows: cell-based.

Data set [3] concerns AMPK. The experiment in a line: Kinase profiling at 1 μM: AMPK. Format: biochemical, human.
The target of data set [4] is TrKA (Homo sapiens, UniProt P04629). The data set is described as follows: Kinase profiling at 1 μM: TrKA. In kind it is biochemical.
TrKA, sequence (P04629 33-796): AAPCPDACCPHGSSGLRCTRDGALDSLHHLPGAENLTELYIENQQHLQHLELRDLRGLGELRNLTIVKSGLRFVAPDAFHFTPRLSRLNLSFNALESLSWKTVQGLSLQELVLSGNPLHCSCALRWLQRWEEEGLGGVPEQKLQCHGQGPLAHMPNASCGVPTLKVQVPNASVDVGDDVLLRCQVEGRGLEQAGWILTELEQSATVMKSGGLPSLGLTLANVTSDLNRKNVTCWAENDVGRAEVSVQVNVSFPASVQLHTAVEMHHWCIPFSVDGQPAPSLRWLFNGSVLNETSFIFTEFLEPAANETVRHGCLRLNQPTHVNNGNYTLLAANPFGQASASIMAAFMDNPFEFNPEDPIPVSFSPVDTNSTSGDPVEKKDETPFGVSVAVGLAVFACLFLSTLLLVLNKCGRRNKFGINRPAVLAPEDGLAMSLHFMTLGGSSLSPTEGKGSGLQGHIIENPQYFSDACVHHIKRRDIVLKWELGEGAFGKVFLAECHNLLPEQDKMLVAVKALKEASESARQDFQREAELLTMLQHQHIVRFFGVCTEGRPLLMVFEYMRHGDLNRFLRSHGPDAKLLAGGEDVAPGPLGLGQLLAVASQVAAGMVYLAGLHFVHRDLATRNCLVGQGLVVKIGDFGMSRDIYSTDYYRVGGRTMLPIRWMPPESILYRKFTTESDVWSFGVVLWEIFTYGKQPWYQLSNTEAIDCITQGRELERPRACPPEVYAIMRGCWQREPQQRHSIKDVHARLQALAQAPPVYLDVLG
The subject of data set [5] is HT29 colon carcinoma cells. The data set is described as follows: Cell cycle analysis. Format: cell-based, human.
Data set [6] deals with MAP4K. The data set is described as follows: Kinase profiling at 1 μM: MAP4K. In kind it is biochemical, human.
Data set [7] deals with T1, CHK1. The data set is described as follows: Cell-based ELISA for G2 checkpoint abrogation. (In general: In an ELISA, binding on a coated surface is turned into a signal by an enzyme label.)
The test system of data set [8] is SW620 xenografts. The data set is described as follows: SW620 xenograft, combination with gemcitabine. Format: in vivo, mouse. As to conditions: 75mg/kg p.o. with gemcitabine 100mg/kg i.v.
A short description of data set [9]: In vitro metabolism in male CD1 mouse microsomes. In kind it is in vitro ADME. Conditions: 10 μM, 30 minutes at 37°C, NADPH and UDPGA.
The target in data set [10] is IRAK 1 (Homo sapiens, UniProt P51617). The data set is described as follows: Kinase profiling at 1 μM: IRAK 1. In kind it is biochemical.
IRAK 1, sequence (P51617 whole entry): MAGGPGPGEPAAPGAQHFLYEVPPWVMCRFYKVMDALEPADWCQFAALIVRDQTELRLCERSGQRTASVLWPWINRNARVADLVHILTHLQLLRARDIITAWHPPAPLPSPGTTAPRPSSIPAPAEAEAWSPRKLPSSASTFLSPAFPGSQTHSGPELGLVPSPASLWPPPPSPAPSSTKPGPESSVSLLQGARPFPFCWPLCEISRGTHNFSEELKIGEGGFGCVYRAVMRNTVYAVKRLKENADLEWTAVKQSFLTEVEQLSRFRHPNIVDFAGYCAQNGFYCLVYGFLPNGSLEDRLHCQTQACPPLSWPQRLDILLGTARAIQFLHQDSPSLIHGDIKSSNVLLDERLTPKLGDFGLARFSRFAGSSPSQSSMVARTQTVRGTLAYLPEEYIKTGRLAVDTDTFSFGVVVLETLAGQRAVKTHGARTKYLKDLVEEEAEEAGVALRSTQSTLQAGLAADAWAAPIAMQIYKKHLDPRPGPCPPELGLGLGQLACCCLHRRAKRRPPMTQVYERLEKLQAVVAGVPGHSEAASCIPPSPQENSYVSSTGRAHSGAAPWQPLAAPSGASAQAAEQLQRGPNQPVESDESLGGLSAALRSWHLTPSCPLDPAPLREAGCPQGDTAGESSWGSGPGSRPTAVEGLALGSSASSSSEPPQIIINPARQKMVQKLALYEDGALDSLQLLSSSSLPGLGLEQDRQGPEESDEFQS
Where [11] appears, read: 0.5μM for 23h following etoposide 25μM × 1h.

CDK1, sequence (P06493 whole entry, looked up): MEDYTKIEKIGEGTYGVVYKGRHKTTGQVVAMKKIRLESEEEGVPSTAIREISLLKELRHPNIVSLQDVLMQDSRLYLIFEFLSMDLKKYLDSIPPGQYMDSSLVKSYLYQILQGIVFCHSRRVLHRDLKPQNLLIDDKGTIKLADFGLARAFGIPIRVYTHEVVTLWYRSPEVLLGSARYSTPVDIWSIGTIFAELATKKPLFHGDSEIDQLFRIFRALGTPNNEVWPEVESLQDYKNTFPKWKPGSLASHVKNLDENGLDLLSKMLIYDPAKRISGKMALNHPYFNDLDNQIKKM

`COc1cc(Nc2cnc(C#N)c(O[C@H](C)CN(C)C)n2)ncc1-c1cnn(C)c1` [CCT244747]: the “selectivity against CDK1” value in data set [1] is “more than 1,000 fold”. Moreover, the concentration for half-maximal inhibition (IC50) in [2] is 0.17 ± 0.0058 µM; in [7] it was 0.094 ± 0.066 µM. The inhibition in data set [3] and in data set [6] was > 50% each time. Besides, the inhibition at 1 µM in data set [4] and in data set [10] was > 50% in each case. Besides, the “further cells accumulating in G2/M” value in [5] (0.1μM with SN38 20nM × 24h) was found to be 33.8%. Besides, the “reduction of SN38-induced S-phase arrest” value in data set [5] (0.1μM with SN38 20nM × 24h) turned out to be 42.3%. Also, the “increase in G1” value in data set [5] (setting [11]) came to 9.6%. Besides, the “loss of G2/M cells” value in data set [5] (setting [11]) amounted to 30%. For the same compound, the “S' population (S-phase cells not incorporating BrdU)” value in data set [5] (0.5μM for 23h following etoposide, increased from 1.2) is reported as 17.7%. In data set [5] (alone, up to 0.5μM × 24h), the “effect alone on the cell cycle” value is reported as “minimal effects”. Further, the “S'-phase cells” value in [5] (increasing concentrations with SN38 20nM × 24h, increased from 5) was determined as 42.1%. Also, the “antitumor activity combined with gemcitabine” value in data set [8] is reported as “Modest activity”. Also, the microsomal metabolism in data set [9] is recorded as 45%.
